Experimental data reported in US6914045B2, “Glycopeptide antibiotics” (Wyeth Holdings Corporation, priority 2001, dated 2005).

Columns and labels:
Escherichia coli = assay: in vitro antibacterial evaluation, MIC by broth dilution; format: cell-based
Outline: (§1)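 Inoculum 5×10^5 CFU/mL; concentrations 64 to 0.06 μg/mL; MIC defined as lowest inhibitory level. Conducted by broth dilution under NCCLS guidelines.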

Streptococcus sp. = assay: as above; format: cell-based; conditions: broth dilution, 18 hours at 35° C.; for MIC Streptococcus pneumoniae (ATCC 6301): strain ATCC 6301; for MIC Streptococcus pneumoniae (GC 1894): strain GC 1894; for MIC Streptococcus pyogenes (GC 4563): strain GC 4563; for MIC Streptococcus agalactiae (GC 4564): strain GC 4564; for MIC Streptococcus pneumoniae (GC 4565): strain GC 4565
Outline: as §1

Enterococcus sp. = assay: as above; format: cell-based; conditions: broth dilution, 18 hours at 35° C.; for MIC Enterococcus faecalis (ATCC 29212): strain ATCC 29212; for MIC Enterococcus faecalis (GC 2242): strain GC 2242; for MIC Enterococcus faecium (GC 2243): strain GC 2243; for MIC Enterococcus faecalis (GC 2691): strain GC 2691; for MIC Enterococcus faecalis (GC 3059): strain GC 3059; for MIC Enterococcus faecalis (GC 4552): strain GC 4552; for MIC Enterococcus faecalis (GC 4553): strain GC 4553; for MIC Enterococcus faecalis (GC 4554): strain GC 4554; for MIC Enterococcus faecium (GC 4556): strain GC 4556; for MIC Enterococcus faecium (GC 4557): strain GC 4557; for MIC Enterococcus avium (GC 4558): strain GC 4558; for MIC Enterococcus faecalis (GC 6189): strain GC 6189
Outline: as §1

Staphylococcus sp. = assay: as above; format: cell-based; conditions: broth dilution, 18 hours at 35° C.; for MIC Staphylococcus aureus (GC 1131): strain GC 1131
Outline: as §1

[1] = tested on: Staphylococcus aureus-SMITH (GC 4543); assay: acute lethal infection in mice; format: in vivo; conditions: acute lethal infection, female CD-1 mice, intraperitoneal challenge, intravenous 30 min. after infection, 7 day survival
Outline: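 Female CD-1 mice (20±2 g) got an intraperitoneal bacterial challenge lethal to untreated controls within 24–48 hr. Compound was dosed intravenously 30 min after infection, five mice per dose. ED50 was calculated from 7-day survival pooled across 3 tests.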

Cc1ccc(Oc2ccc(C3OCC4OC(OC5C(CO)OC(Oc6ccc(CC7NC(=O)C(C(C)c8ccccc8)NC(=O)CNC(=O)C(CO)NC(=O)C(C(O)C8CNC(=N)N8C8OC(CO)C(O)C(O)C8O)NC(=O)C(C(O)C8CNC(=N)N8)NC7=O)cc6)C(O)C5O)C(O)C(O)C4O3)cc2)cc1 (stereo not drawn) [Example 174, Cyclo[glycyl-β-methylphenylalanyl-O-[4-O-[4,6-O-[4-(4-methylphenoxy)benzylidene]hexopyranosyl]hexopyranosyl]tyrosyl-3-(2-iminoimidazolidin-4-yl)seryl-3-(3-hexopyranosyl-2-iminoimidazolidin-4-yl)serylseryl]]
<0.06 µg/mL: MIC Streptococcus pneumoniae (ATCC 6301) (Streptococcus sp.; inoculum 5×10^5 CFU/mL) | MIC Streptococcus pneumoniae (GC 1894) (Streptococcus sp.; inoculum 5×10^5 CFU/mL) | MIC Streptococcus pyogenes (GC 4563) (Streptococcus sp.; inoculum 5×10^5 CFU/mL) | MIC Streptococcus agalactiae (GC 4564) (Streptococcus sp.; inoculum 5×10^5 CFU/mL) | MIC Streptococcus pneumoniae (GC 4565) (Streptococcus sp.; inoculum 5×10^5 CFU/mL) | MIC Streptococcus pneumoniae (ATCC 6301) (Streptococcus sp.) | MIC Streptococcus pneumoniae (GC 1894) (Streptococcus sp.) | MIC Streptococcus pyogenes (GC 4563) (Streptococcus sp.) | MIC Streptococcus agalactiae (GC 4564) (Streptococcus sp.) | MIC Streptococcus pneumoniae (GC 4565) (Streptococcus sp.)
1 µg/mL: MIC Enterococcus faecium (GC 2243) (Enterococcus sp.; inoculum 5×10^5 CFU/mL) | MIC Enterococcus faecalis (GC 4552) (Enterococcus sp.; inoculum 5×10^5 CFU/mL) | MIC Enterococcus faecalis (GC 4553) (Enterococcus sp.; inoculum 5×10^5 CFU/mL) | MIC Enterococcus faecalis (GC 4554) (Enterococcus sp.; inoculum 5×10^5 CFU/mL) | MIC Enterococcus faecium (GC 4556) (Enterococcus sp.; inoculum 5×10^5 CFU/mL) | MIC Enterococcus faecium (GC 2243) (Enterococcus sp.) | MIC Enterococcus faecalis (GC 4552) (Enterococcus sp.) | MIC Enterococcus faecalis (GC 4553) (Enterococcus sp.) | MIC Enterococcus faecalis (GC 4554) (Enterococcus sp.) | MIC Enterococcus faecium (GC 4556) (Enterococcus sp.) | MIC Staphylococcus aureus (GC 1131) (Staphylococcus sp.; inoculum 5×10^5 CFU/mL) | MIC Staphylococcus aureus (GC 1131) (Staphylococcus sp.) | MIC Staphylococcus aureus (GC 4544) (Staphylococcus sp.; strain GC 4544) | MIC Staphylococcus aureus (GC 4545) (Staphylococcus sp.; strain GC 4545) | MIC Staphylococcus aureus-SMITH (GC 4543) (Staphylococcus sp.; strain GC 4543) | MIC Coagulase Negative Staphylococcus (GC 4549) (Staphylococcus sp.; strain GC 4549) | MIC Coagulase Negative Staphylococcus (GC 4551) (Staphylococcus sp.; strain GC 4551)
>64 µg/mL: MIC Escherichia coli (ATCC 25922) (Escherichia coli; strain ATCC 25922, 18 hours at 35° C.) | MIC Escherichia coli (GC 4559) (Escherichia coli; strain GC 4559, 18 hours at 35° C.)
4 µg/mL: MIC Escherichia coli (GC 4560) (Escherichia coli; strain GC 4560, 18 hours at 35° C.)
0.08 mg/kg: median effective dose (ED50), Staphylococcus aureus-SMITH (GC 4543) [1]
0.5 µg/mL: MIC Coagulase Negative Staphylococcus (GC 4548) (Staphylococcus sp.; strain GC 4548) | MIC Coagulase Negative Staphylococcus (GC 6257) (Staphylococcus sp.; strain GC 6257)
2 µg/mL: MIC Enterococcus faecalis (ATCC 29212) (Enterococcus sp.; inoculum 5×10^5 CFU/mL) | MIC Enterococcus faecalis (GC 2242) (Enterococcus sp.; inoculum 5×10^5 CFU/mL) | MIC Enterococcus faecalis (GC 2691) (Enterococcus sp.; inoculum 5×10^5 CFU/mL) | MIC Enterococcus faecalis (GC 3059) (Enterococcus sp.; inoculum 5×10^5 CFU/mL) | MIC Enterococcus faecium (GC 4557) (Enterococcus sp.; inoculum 5×10^5 CFU/mL) | MIC Enterococcus avium (GC 4558) (Enterococcus sp.; inoculum 5×10^5 CFU/mL) | MIC Enterococcus faecalis (GC 6189) (Enterococcus sp.; inoculum 5×10^5 CFU/mL) | MIC Enterococcus faecalis (ATCC 29212) (Enterococcus sp.) | MIC Enterococcus faecalis (GC 2242) (Enterococcus sp.) | MIC Enterococcus faecalis (GC 2691) (Enterococcus sp.) | MIC Enterococcus faecalis (GC 3059) (Enterococcus sp.) | MIC Enterococcus faecium (GC 4557) (Enterococcus sp.) | MIC Enterococcus avium (GC 4558) (Enterococcus sp.) | MIC Enterococcus faecalis (GC 6189) (Enterococcus sp.) | MIC Staphylococcus aureus (ATCC 29213) (Staphylococcus sp.; strain ATCC 29213) | MIC Staphylococcus aureus (GC 3051) (Staphylococcus sp.; strain GC 3051) | MIC Staphylococcus aureus (GC 3053) (Staphylococcus sp.; strain GC 3053) | MIC Staphylococcus aureus (GC 4541) (Staphylococcus sp.; strain GC 4541) | MIC Staphylococcus aureus (GC 4542) (Staphylococcus sp.; strain GC 4542) | MIC Staphylococcus haemolyticus (GC 4546) (Staphylococcus sp.; strain GC 4546) | MIC Coagulase Negative Staphylococcus (GC 4547) (Staphylococcus sp.; strain GC 4547)
